Earlier results, collected in PMC10125900 (The Journal of General Physiology, 2023).

How the values were obtained:
[1] = tested on: GluN1^FA+TL/3A; conditions: read-out: glycine potency at GluN3A, EC50; ref Kvist et al., 2013a
[2] = tested on: GluN3A ABD; conditions: ref Furukawa and Gouaux, 2003; Yao and Mayer, 2006
[3] = target: GluN1/2A–D receptors; conditions: read-out: glycine potency at GluN1, EC50; ref Hansen et al., 2021

Question: For `NCC(=O)O` [glycine], which EC50 [1] is on record?
Answer: 60 µM

Question: What about the “higher affinity for isolated GluN3A ABD compared to isolated GluN1 ABD” value [2] of the same compound?
Answer: 650 fold

Question: And the EC50 [3]?
Answer: 0.1 to 1 µM
